Earlier results as cited in patent US20250143325A1, “PLANT-BASED INSECT REPELLENT AND USES THEREOF” (PIC Corporation, priority 2023, published 2025).

Key:
[1] = test system: storage food mite, Tyrophagus putrescentiae; conditions: impregnated fabric disc bioassay against Tyrophagus putrescentiae
[2] = test system: Periplaneta americana (the American Cockroach) and Blaberus discoidalis (discoids)

| Compound | 50% lethal dose value [1] [g/mL] | concentration abolishing spontaneous foregut contractions (together with response to electrical stimulation) ([2]; foregut) [mM] | threshold for increased spontaneous firing (abdominal nerve cord) ([2]; lower doses, impulses recorded extracellularly) [µM] |
| --- | --- | --- | --- |
| O=C(OCc1ccccc1)c1ccccc1 [benzyl benzoate] | 1.27 |  |  |
| CC(C)=CCC/C(C)=C/CO [geraniol] | 1.95 | 2 | 250 |
